Laboratory results from patent US4593090A, “Novel nitrosourea compounds, method for preparing same, and pharmaceutical composition containing same” (Gogo Kimura, priority 1981, dated 1986).
Where two headings read alike, the source gives them in different places.

Tests used:
Leukemia L1210 [1] = test: Activity against Leukemia L1210, oral, increase in life span of mice; format: in vivo, female mice (BDF1 family); details: for ED (maximum ILS) / ED30: Mus musculus, L1210, oral once a day for 5 successive days; for ED (maximum ILS): daily dosage giving maximum increase of life span, read-out: O.D. (optimum dosage); for ED30: daily dosage increasing average survival days by 30%, read-out: ILS30; for Survivors after 60 days / Max. ILS % / Therapeutic ratio TR: oral; for Survivors after 60 days: 6-membered group; for Max. ILS %: 60-day observation, versus control; for Therapeutic ratio TR: O.D./ILS30
Procedure, shortened: (§1)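 Dosing started 24 h after ip implantation of 1×10^5 L1210 cells into groups of 6 female BDF1 mice, by ip or oral route daily for 5 consecutive days. Survival was followed for 60 days; increase in life span was scored against untreated mice, with therapeutic ratio from optimum dose over ILS30 dose.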

Ehrlich acites carcinoma = test: Growth-inhibiting effect against Ehrlich acites carcinoma; format: in vivo, male mice; details: 5 days; for response vs control in vivo at 25 mg/kg: 25 mg/kg/day ip; for response vs control in vivo at 100 mg/kg: 100 mg/kg/day ip; for response vs control in vivo at 3.2 mg/kg: 3.2 mg/kg/day ip; for response vs control in vivo at 6.3 mg/kg: 6.3 mg/kg/day ip
Procedure, shortened: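 Activity graded from T/C% of total packed ascites cell volume on day 7 (treated vs untreated): - 100-66, + 65-41, ++ 40-11, +++ 10-0. Groups of 6 male mice bore 1×10^7 i.p.-implanted cells and received compound (1% Nikkol HCO-60) i.p. daily for 5 days from 24 hrs after implantation.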

Leukemia L1210 [2] = test: Activity against Leukemia L1210, intraperitoneal, increase in life span of mice; format: in vivo, female mice (BDF1 family); details: for ED (maximum ILS) / ED30: Mus musculus, L1210, ip, ip once a day for 5 successive days; for ED (maximum ILS): daily dosage giving maximum increase of life span, read-out: O.D. (optimum dosage); for ED30: daily dosage increasing average survival days by 30%, read-out: ILS30; for Survivors after 60 days / Max. ILS % / Therapeutic ratio TR: ip; for Survivors after 60 days: 6-membered group; for Max. ILS %: 60-day observation, versus control; for Therapeutic ratio TR: O.D./ILS30
Procedure, shortened: as §1

[3] = Acute toxicity (LD50, Behrens-Karber method); format: in vivo, ICR mice; details: mouse, in vivo, ip, mortality during 30 days
Procedure: Test compounds, dissolved or suspended in 0.5% aqueous CMC, were each intraperitoneally administered to ICR mice in a dose of 0.1 ml per 10 g body weight. LD50 (mg/kg) value of each test compound was calculated from the mortality of mice during 30 days by the Behrens-Karber method.

[4] = Mus musculus, Ehrlich, 120 h, read-out: Activity
[5] = Mus musculus, Ehrlich, 120 h, read-out: T/C %

Row | SMILES | ED (maximum ILS) (Leukemia L1210 [1]) | ED30 (Leukemia L1210 [1]) | Survivors after 60 days (Leukemia L1210 [1]) | Max. ILS % (Leukemia L1210 [1]) | Therapeutic ratio TR (Leukemia L1210 [1]) | response vs control in vivo at 25 mg/kg (Ehrlich acites carcinoma; [4]) | response vs control in vivo at 25 mg/kg (Ehrlich acites carcinoma; [5]) | response vs control in vivo at 100 mg/kg (Ehrlich acites carcinoma; [4]) | response vs control in vivo at 100 mg/kg (Ehrlich acites carcinoma; [5]) | ED (maximum ILS) (Leukemia L1210 [2]) | ED30 (Leukemia L1210 [2]) | Survivors after 60 days (Leukemia L1210 [2]) | Max. ILS % (Leukemia L1210 [2]) | Therapeutic ratio TR (Leukemia L1210 [2]) | LD50 at 720 h [3] | further results
1 | CCCCO[C@H]1O[C@H](CO)[C@H](N(C(=O)N(CCCl)N=O)C(C)COC)[C@H](O)[C@H]1O (stereo partly drawn) [Compound 132, 3-(1-methyl-2-methoxyethyl)-3-(n-butyl α-D-galactopyranose-4-yl)-1-(2-chloroethyl)-1-nitrosourea] | 200 mg/kg | 14 mg/kg | 3/6 | > 345% | 14.3 | 0 to 10% | 0% | 0 to 10% | 0% | 160 mg/kg | 3.86 mg/kg | 4/6 | > 420% | 41.5 | 550 mg/kg | –
2 | CC(CN1CCOCC1)O[C@@H]1O[C@H](CN(C(=O)N(CCCl)N=O)C(C)(C)C)[C@@H](O)[C@H](O)[C@H]1O (stereo partly drawn) [Compound 200, 3-tert-butyl-3-(1-morpholinoisopropyl β-D-glucopyranose-6-yl)-1-(2-chloroethyl)-1-nitrosourea] | 190 mg/kg | 10.1 mg/kg | 4/6 | > 460% | 18.9 | 0 to 10% | 0% | 0 to 10% | 0% | 150 mg/kg | 3.11 mg/kg | 6/6 | > 700% | 48.2 | 480 mg/kg | –
3 | COCCN(C(=O)N(CCCl)N=O)C1C(OC(C)COC)OC(CO)C(O)C1O [Compound 71, 3-(2-methoxyethyl)-3-(1-methyl-2-methoxyethyl α-D-glucopyranose-2-yl)-1-(2-chloroethyl)-1-nitrosourea] | 220 mg/kg | 13.1 mg/kg | 4/6 | > 440% | 16.8 | 0 to 10% | 0% | 0 to 10% | 0% | 180 mg/kg | 4.17 mg/kg | 6/6 | > 700% | 43.2 | 560 mg/kg | –
4 | CCOCCN(C(=O)N(CCCl)N=O)[C@@H]1[C@@H](O)[C@@H](OC2CCCCC2)OC[C@H]1O [Compound 149, 3-(2-ethoxyethyl)-3-(cyclohexyl α-D-xylopyranose-3-yl)-1-(2-chloroethyl)-1-nitrosourea] | 210 mg/kg | 12.8 mg/kg | 4/6 | > 440% | 16.4 | 0 to 10% | 0% | 0 to 10% | 0% | 170 mg/kg | 2.9 mg/kg | 6/6 | > 700% | 58.6 | 540 mg/kg | –
5 | COCC(C)N(C[C@H]1O[C@H](OCC(C)C)[C@H](O)[C@@H](O)[C@@H]1O)C(=O)N(CCCl)N=O (stereo partly drawn) [Compound 16, 3-(1-methyl-2-methoxyethyl)-3-(isobutyl α-D-glucopyranose-6-yl)-1-(2-chloroethyl)-1-nitrosourea] | 240 mg/kg | 8.82 mg/kg | 6/6 | > 700% | 27.2 | 0 to 10% | 0% | 0 to 10% | 0% | 190 mg/kg | 2.9 mg/kg | 6/6 | > 700% | 65.6 | 580 mg/kg | –
6 | COCCCN(C[C@H]1O[C@H](OCC(C)C)[C@H](O)[C@H]1O)C(=O)N(CCCl)N=O [Compound 164, 3-(3-methoxy-n-propyl)-3-(isobutyl α-D-xylofuranose-5-yl)-1-(2-chloroethyl)-1-nitrosourea] | 185 mg/kg | 14.5 mg/kg | 5/6 | > 620% | 12.8 | 0 to 10% | 0% | 0 to 10% | 0% | 160 mg/kg | 2.72 mg/kg | 6/6 | > 700% | 58.8 | 520 mg/kg | –
7 | CO[C@H]1O[C@H](CNC(=O)N(CCCl)N=O)[C@@H](O)[C@H](O)[C@H]1O [Compound 6MCαG, 3-(methyl α-D-glucopyranose-6-yl)-1-(2-chloroethyl)-1-nitrosourea, reference compound] | 16.8 mg/kg | 2.45 mg/kg | 6/6 | > 700% | 6.86 | – | – | – | – | 13.5 mg/kg | 0.53 mg/kg | 6/6 | > 700% | 25.5 | 40 mg/kg | Activity (toxicity in words) (Ehrlich acites carcinoma; 12.5 mg/kg/day ip): Toxic (2/6); response vs control in vivo at 3.2 mg/kg (Ehrlich acites carcinoma; [4]): 0 to 10%; response vs control in vivo at 3.2 mg/kg (Ehrlich acites carcinoma; [5]): 0%; response vs control in vivo at 6.3 mg/kg (Ehrlich acites carcinoma; [4]): 0 to 10%; response vs control in vivo at 6.3 mg/kg (Ehrlich acites carcinoma; [5]): 0%; response vs control in vivo at 12.5 mg/kg (Ehrlich acites carcinoma; Mus musculus, Ehrlich, 120 h, 12.5 mg/kg/day ip, read-out: T/C %): 0%
8 | CC(C)CO[C@H]1O[C@H](CN(CC2CCCO2)C(=O)N(CCCl)N=O)[C@@H](O)[C@@H](O)[C@@H]1O (stereo partly drawn) [Compound 140, 3-tetrahydrofurfuryl-3-(isobutyl α-D-altropyranose-6-yl)-1-(2-chloroethyl)-1-nitrosourea] | 220 mg/kg | 9.69 mg/kg | 5/6 | > 620% | 22.7 | 0 to 10% | 0% | 0 to 10% | 0% | 180 mg/kg | 2.8 mg/kg | 6/6 | > 700% | 64.3 | 540 mg/kg | –
